Measurements as given in ChEMBL document CHEMBL1201862, “PubChem BioAssay data set” (2004).
Where “and” joins values, the source holds several entries; their conditions need not be identical. Identical values can stand only once.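 Five compound concentrations were applied to cells in 96-well plates for 48 hours; endpoints were derived by simple linear interpolation of the resulting dose-response curve. At the GI50, growth is halved.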 Calls of active or inactive are those of the source. No stated cut-off is given here; in the data, active = GI50 up to about 1.1 µM and inactive = higher.

Legend:
Assay in all cases: NCI-60 cell line screen, 48 h
786-0 = system: 786-0
A498 = system: A498
A549 = system: A549
ACHN = system: ACHN
CAKI-1 = system: CAKI-1
CCRF-CEM = system: CCRF-CEM
COLO 205 = system: COLO 205
DLD-1 = system: DLD-1
DMS-114 = system: DMS-114
DMS-273 = system: DMS-273
EKVX = system: EKVX
HCC 2998 = system: HCC 2998
HCT-116 = system: HCT-116
HCT-15 = system: HCT-15
HL-60 = system: HL-60
HOP-62 = system: HOP-62
HT-29 = system: HT-29
IGROV-1 = system: IGROV-1
K562 = system: K562
KM-20L2 = system: KM-20L2
KM12 = system: KM12
LOX IMVI = system: LOX IMVI
LXFL 529 = system: LXFL 529
M14 = system: M14
M19-MEL = system: M19-MEL
MOLT-4 = system: MOLT-4
Malme-3M = system: Malme-3M
NCI-H226 = system: NCI-H226
NCI-H23 = system: NCI-H23
NCI-H522 = system: NCI-H522
OVCAR-3 = system: OVCAR-3
OVCAR-4 = system: OVCAR-4
OVCAR-8 = system: OVCAR-8
RPMI-8226 = system: RPMI-8226
RXF 393 = system: RXF 393
RXF 631 = system: RXF 631
SF-268 = system: SF-268
SF-295 = system: SF-295
SF-539 = system: SF-539
SK-MEL-2 = system: SK-MEL-2
SK-MEL-5 = system: SK-MEL-5
SN12C = system: SN12C
SNB-19 = system: SNB-19
SNB-75 = system: SNB-75
SR = system: SR
SW-620 = system: SW-620
TK-10 = system: TK-10
U-251 = system: U-251
UACC-257 = system: UACC-257
UACC-62 = system: UACC-62
UO-31 = system: UO-31
XF498 = system: XF498
HOP-18 = system: HOP-18
HOP-92 = system: HOP-92
NCI-H460 = system: NCI-H460
OVCAR-5 = system: OVCAR-5
SK-MEL-28 = system: SK-MEL-28
SK-OV-3 = system: SK-OV-3
SNB-78 = system: SNB-78
BT-549 = system: BT-549
DU-145 = system: DU-145
Hs-578T = system: Hs-578T
MCF7 = system: MCF7
MDA-MB-231 = system: MDA-MB-231
MDA-MB-435 = system: MDA-MB-435
MDA-N = system: MDA-N
NCI/ADR-RES = system: NCI/ADR-RES
PC-3 = system: PC-3
T47D = system: T47D

## CNS(=O)(=O)NN(C)S(=O)(=O)c1ccc(Cl)cc1
786-0
  GI50: > 100 µM (inactive)
A498
  GI50: > 100 µM (inactive)
A549
  GI50: > 100 µM (inactive)
ACHN
  GI50: > 100 µM (inactive)
CAKI-1
  GI50: > 100 µM (inactive)
CCRF-CEM
  GI50: > 100 µM (inactive)
COLO 205
  GI50: > 100 µM (inactive)
DLD-1
  GI50: > 100 µM (inactive)
DMS-114
  GI50: > 100 µM (inactive)
DMS-273
  GI50: > 100 µM (inactive)
EKVX
  GI50: 98.4 µM (inactive)
HCC 2998
  GI50: > 100 µM (inactive)
HCT-116
  GI50: > 100 µM (inactive)
HCT-15
  GI50: > 100 µM
HL-60
  GI50: > 100 µM (inactive)
HOP-62
  GI50: > 100 µM (inactive)
HT-29
  GI50: > 100 µM (inactive)
IGROV-1
  GI50: > 100 µM (inactive)
K562
  GI50: > 100 µM (inactive)
KM-20L2
  GI50: > 100 µM (inactive)
KM12
  GI50: > 100 µM (inactive)
LOX IMVI
  GI50: > 100 µM (inactive)
LXFL 529
  GI50: > 100 µM (inactive)
M14
  GI50: > 100 µM (inactive)
M19-MEL
  GI50: > 100 µM (inactive)
MOLT-4
  GI50: > 100 µM (inactive)
Malme-3M
  GI50: > 100 µM (inactive)
NCI-H226
  GI50: > 100 µM (inactive)
NCI-H23
  GI50: > 100 µM (inactive)
NCI-H522
  GI50: > 100 µM (inactive)
OVCAR-3
  GI50: > 100 µM (inactive)
OVCAR-4
  GI50: > 100 µM (inactive)
OVCAR-8
  GI50: > 100 µM (inactive)
RPMI-8226
  GI50: > 100 µM (inactive)
RXF 393
  GI50: > 100 µM (inactive)
RXF 631
  GI50: > 100 µM (inactive)
SF-268
  GI50: > 100 µM (inactive)
SF-295
  GI50: > 100 µM (inactive)
SF-539
  GI50: > 100 µM (inactive)
SK-MEL-2
  GI50: > 100 µM (inactive)
SK-MEL-5
  GI50: > 100 µM (inactive)
SN12C
  GI50: > 100 µM (inactive)
SNB-19
  GI50: > 100 µM (inactive)
SNB-75
  GI50: > 100 µM (inactive)
SR
  GI50: > 100 µM (inactive)
SW-620
  GI50: > 100 µM (inactive)
TK-10
  GI50: > 100 µM (inactive)
U-251
  GI50: 83 µM (inactive)
UACC-257
  GI50: > 100 µM (inactive)
UACC-62
  GI50: > 100 µM (inactive)
UO-31
  GI50: > 100 µM (inactive)
XF498
  GI50: > 100 µM (inactive)

## O=C1CCCCC1S(=O)(=O)c1ccccc1 (configuration not stated)
786-0
  GI50: > 100 µM (inactive)
A498
  GI50: > 100 µM (inactive)
A549
  GI50: > 100 µM (inactive)
ACHN
  GI50: > 100 µM (inactive)
CAKI-1
  GI50: > 100 µM (inactive)
CCRF-CEM
  GI50: > 100 µM (inactive)
COLO 205
  GI50: > 100 µM (inactive)
DLD-1
  GI50: > 100 µM (inactive)
DMS-114
  GI50: > 100 µM (inactive)
DMS-273
  GI50: > 100 µM (inactive)
EKVX
  GI50: > 100 µM (inactive)
HCC 2998
  GI50: > 100 µM (inactive)
HCT-116
  GI50: > 100 µM (inactive)
HCT-15
  GI50: > 100 µM
HL-60
  GI50: > 100 µM (inactive)
HOP-18
  GI50: > 100 µM (inactive)
HOP-62
  GI50: > 100 µM (inactive)
HOP-92
  GI50: > 100 µM (inactive)
HT-29
  GI50: > 100 µM (inactive)
IGROV-1
  GI50: > 100 µM (inactive)
K562
  GI50: > 100 µM (inactive)
KM-20L2
  GI50: > 100 µM (inactive)
KM12
  GI50: > 100 µM (inactive)
LOX IMVI
  GI50: > 100 µM (inactive)
LXFL 529
  GI50: > 100 µM (inactive)
M14
  GI50: > 100 µM (inactive)
M19-MEL
  GI50: > 100 µM (inactive)
MOLT-4
  GI50: > 100 µM (inactive)
Malme-3M
  GI50: > 100 µM (inactive)
NCI-H226
  GI50: > 100 µM (inactive)
NCI-H23
  GI50: > 100 µM (inactive)
NCI-H460
  GI50: > 100 µM (inactive)
NCI-H522
  GI50: > 100 µM (inactive)
OVCAR-3
  GI50: > 100 µM (inactive)
OVCAR-4
  GI50: > 100 µM (inactive)
OVCAR-5
  GI50: > 100 µM (inactive)
OVCAR-8
  GI50: > 100 µM (inactive)
RPMI-8226
  GI50: > 100 µM (inactive)
RXF 393
  GI50: > 100 µM (inactive)
SF-268
  GI50: > 100 µM (inactive)
SF-295
  GI50: > 100 µM (inactive)
SF-539
  GI50: > 100 µM (inactive)
SK-MEL-28
  GI50: > 100 µM (inactive)
SK-MEL-2
  GI50: > 100 µM (inactive)
SK-MEL-5
  GI50: > 100 µM (inactive)
SK-OV-3
  GI50: > 100 µM (inactive)
SN12C
  GI50: > 100 µM (inactive)
SNB-19
  GI50: > 100 µM (inactive)
SNB-75
  GI50: > 100 µM (inactive)
SNB-78
  GI50: > 100 µM (inactive)
SR
  GI50: > 100 µM (inactive)
SW-620
  GI50: > 100 µM (inactive)
TK-10
  GI50: > 100 µM (inactive)
U-251
  GI50: > 100 µM (inactive)
UACC-257
  GI50: > 100 µM (inactive)
UACC-62
  GI50: > 100 µM (inactive)
UO-31
  GI50: > 100 µM (inactive)
XF498
  GI50: > 100 µM (inactive)

## O=C1C(Br)=C(Br)C(=O)c2ccccc21 [2,3-Dibromo-1,4-naphthoquinone]
786-0
  GI50: 18.3 µM (inactive) and 9.77 µM (inactive)
A549
  GI50: 13.6 µM (inactive)
BT-549
  GI50: 4.61 µM (inactive)
CAKI-1
  GI50: 6.34 µM (inactive)
DLD-1
  GI50: 15.2 µM (inactive) and 18.5 µM (inactive)
DU-145
  GI50: 18.7 µM (inactive)
HCC 2998
  GI50: 21.7 µM (inactive) and 19.1 µM (inactive)
HCT-116
  GI50: 17.9 µM (inactive) and 12.2 µM (inactive)
HCT-15
  GI50: 17.2 µM and 11.9 µM
HL-60
  GI50: 2.7 µM (inactive)
HOP-18
  GI50: 20.1 µM (inactive)
HOP-62
  GI50: 18.5 µM (inactive) and 21.5 µM (inactive)
Hs-578T
  GI50: 4.98 µM (inactive)
KM-20L2
  GI50: 30.2 µM (inactive) and 15.1 µM (inactive)
KM12
  GI50: 19.6 µM (inactive) and 12.8 µM (inactive)
M14
  GI50: 15.1 µM (inactive) and 8.77 µM (inactive)
MCF7
  GI50: 17.5 µM (inactive)
MDA-MB-231
  GI50: 5.19 µM (inactive)
MDA-MB-435
  GI50: 7.98 µM (inactive)
MDA-N
  GI50: 3.84 µM (inactive)
NCI/ADR-RES
  GI50: 22.2 µM (inactive)
OVCAR-4
  GI50: 17.1 µM (inactive) and 11.1 µM (inactive)
OVCAR-5
  GI50: 20.5 µM (inactive) and 10.6 µM (inactive)
PC-3
  GI50: 17.5 µM (inactive)
RPMI-8226
  GI50: 3.01 µM (inactive)
RXF 631
  GI50: 5.94 µM (inactive)
SK-MEL-2
  GI50: 19.6 µM (inactive) and 10.4 µM (inactive)
SK-MEL-5
  GI50: 10.5 µM (inactive)
SR
  GI50: 2.2 µM (inactive)
T47D
  GI50: 3.5 µM (inactive)
TK-10
  GI50: 17.1 µM (inactive) and 12.7 µM (inactive)
UACC-62
  GI50: 16.7 µM (inactive) and 9.71 µM (inactive)
